Measurements reported in ChEMBL document CHEMBL5212743, “Selectivity Literature for EUbOPEN Chemogenomics Library wave 3” (2023).

Columns and labels:
[1] = molecular target: D(2) dopamine receptor (Homo sapiens, UniProt P14416); assay: Selectivity interaction (GPCR panel (PDSP screen)) EUB0000725a DRD2; conditions: at 10 µM
[2] = molecular target: Macrophage metalloelastase (Homo sapiens, UniProt P39900); assay: Selectivity interaction (MMPs panel (Panlabs panel, Bayer)) EUB0000725a MMP12
[3] = molecular target: Collagenase 3 (Homo sapiens, UniProt P45452); assay: Selectivity interaction (MMPs panel (Panlabs panel, Bayer)) EUB0000725a MMP13
[4] = molecular target: Interstitial collagenase (Homo sapiens, UniProt P03956); assay: Selectivity interaction (MMPs panel (Panlabs panel, Bayer)) EUB0000725a MMP1
[5] = molecular target: Matrix metalloproteinase-14 (Homo sapiens, UniProt P50281); assay: Selectivity interaction (MMPs panel (Panlabs panel, Bayer)) EUB0000725a MMP14
[6] = molecular target: 72 kDa type IV collagenase (Homo sapiens, UniProt P08253); assay: Selectivity interaction (MMPs panel (Panlabs panel, Bayer)) EUB0000725a MMP2
[7] = molecular target: Stromelysin-1 (Homo sapiens, UniProt P08254); assay: Selectivity interaction (MMPs panel (Panlabs panel, Bayer)) EUB0000725a MMP3
[8] = molecular target: T1, Matrilysin (Homo sapiens, UniProt P09237); assay: Selectivity interaction (MMPs panel (Panlabs panel, Bayer)) EUB0000725a MMP7
T1 sequence (P09237 whole entry): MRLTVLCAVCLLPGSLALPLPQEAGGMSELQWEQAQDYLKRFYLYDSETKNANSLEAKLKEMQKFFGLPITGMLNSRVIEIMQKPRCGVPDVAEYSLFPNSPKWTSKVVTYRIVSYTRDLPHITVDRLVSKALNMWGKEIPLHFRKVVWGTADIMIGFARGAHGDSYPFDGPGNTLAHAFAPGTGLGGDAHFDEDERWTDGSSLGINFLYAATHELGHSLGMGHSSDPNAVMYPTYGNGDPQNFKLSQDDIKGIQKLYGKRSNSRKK

[9] = molecular target: Neutrophil collagenase (Homo sapiens, UniProt P22894); assay: Selectivity interaction (MMPs panel (Panlabs panel, Bayer)) EUB0000725a MMP8
[10] = molecular target: Matrix metalloproteinase-9 (Homo sapiens, UniProt P14780); assay: Selectivity interaction (MMPs panel (Panlabs panel, Bayer)) EUB0000725a MMP9
[11] = molecular target: Uncharacterized serine/threonine-protein kinase SBK3 (Homo sapiens) (UniProt P0C264); assay: Selectivity interaction (KinomeScan (DiscoverX)) EUB0000725a SBK3; conditions: at 10 µM
[12] = molecular target: Phosphatidylinositol 4,5-bisphosphate 3-kinase catalytic subunit alpha isoform (Homo sapiens, UniProt P42336); assay: Selectivity interaction (KinomeScan (DiscoverX)) EUB0000725a PIK3CA; conditions: at 10 µM
[13] = molecular target: T2, Gamma-aminobutyric acid receptor subunit alpha-1 (Homo sapiens, UniProt P14867); assay: Selectivity interaction (GPCR panel (PDSP screen)) EUB0000302b GABRA1
T2 sequence (P14867 whole entry): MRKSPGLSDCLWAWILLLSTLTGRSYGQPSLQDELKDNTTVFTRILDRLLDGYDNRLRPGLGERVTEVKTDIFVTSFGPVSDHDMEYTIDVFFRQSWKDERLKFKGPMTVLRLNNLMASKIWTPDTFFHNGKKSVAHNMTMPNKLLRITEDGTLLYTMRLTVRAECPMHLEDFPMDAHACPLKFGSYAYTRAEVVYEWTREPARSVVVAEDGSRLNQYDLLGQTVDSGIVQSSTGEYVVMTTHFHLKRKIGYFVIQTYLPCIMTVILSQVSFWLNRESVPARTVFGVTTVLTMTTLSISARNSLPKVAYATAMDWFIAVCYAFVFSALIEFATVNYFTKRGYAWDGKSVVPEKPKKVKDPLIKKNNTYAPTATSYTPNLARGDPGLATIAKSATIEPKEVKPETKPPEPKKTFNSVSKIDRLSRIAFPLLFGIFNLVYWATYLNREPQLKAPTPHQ

[14] = molecular target: Chymotrypsin-like elastase family member 1 (Homo sapiens, UniProt Q9UNI1); assay: Selectivity interaction (Serine protease panel) EUB0000735a CELA1
[15] = molecular target: Chymase (Homo sapiens, UniProt P23946); assay: Selectivity interaction (Serine protease panel) EUB0000735a CMA1
[16] = molecular target: Chymotrypsin-C (Homo sapiens, UniProt Q99895); assay: Selectivity interaction (Serine protease panel) EUB0000735a CTRC
[17] = molecular target: Cathepsin G (Homo sapiens, UniProt P08311); assay: Selectivity interaction (Serine protease panel) EUB0000735a CTSG
[18] = molecular target: Coagulation factor XI (Homo sapiens, UniProt P03951); assay: Selectivity interaction (Serine protease panel) EUB0000735a F11
[19] = molecular target: Coagulation factor VII (Homo sapiens, UniProt P08709); assay: Selectivity interaction (Serine protease panel) EUB0000735a F7
[20] = molecular target: Coagulation factor IX (Homo sapiens, UniProt P00740); assay: Selectivity interaction (Serine protease panel) EUB0000735a F9
[21] = molecular target: Kallikrein-1 (Homo sapiens, UniProt P06870); assay: Selectivity interaction (Serine protease panel) EUB0000735a KLK1
[22] = molecular target: Kallikrein-12 (Homo sapiens, UniProt Q9UKR0); assay: Selectivity interaction (Serine protease panel) EUB0000735a KLK12
[23] = molecular target: Kallikrein-4 (Homo sapiens, UniProt Q9Y5K2); assay: Selectivity interaction (Serine protease panel) EUB0000735a KLK4
[24] = molecular target: Kallikrein-5 (Homo sapiens, UniProt Q9Y337); assay: Selectivity interaction (Serine protease panel) EUB0000735a KLK5
[25] = molecular target: Kallikrein-7 (Homo sapiens, UniProt P49862); assay: Selectivity interaction (Serine protease panel) EUB0000735a KLK7
[26] = molecular target: Plasma kallikrein (Homo sapiens, UniProt P03952); assay: Selectivity interaction (Serine protease panel) EUB0000735a KLKB1
[27] = molecular target: Plasminogen (Homo sapiens, UniProt P00747); assay: Selectivity interaction (Serine protease panel) EUB0000735a PLG
[28] = molecular target: Serine protease 1 (Homo sapiens, UniProt P07477); assay: Selectivity interaction (Serine protease panel) EUB0000735a PRSS1
[29] = molecular target: Dipeptidyl peptidase 2 (Homo sapiens, UniProt Q9UHL4); assay: Selectivity interaction (Serine protease panel) EUB0000735a DPP7
[30] = molecular target: Dipeptidyl peptidase 4 (Homo sapiens, UniProt P27487); assay: Selectivity interaction (Serine protease panel) EUB0000735a DPP4
[31] = molecular target: Prolyl endopeptidase FAP (Homo sapiens, UniProt Q12884); assay: Selectivity interaction (Serine protease panel) EUB0000735a FAP
[32] = molecular target: cAMP-dependent protein kinase catalytic subunit beta (Homo sapiens) (UniProt P22694); assay: Selectivity interaction (KinomeScan (DiscoverX)) EUB0000735a PRKACB; conditions: at 1 µM
[33] = molecular target: cGMP-dependent protein kinase 1 (Homo sapiens) (UniProt Q13976); assay: Selectivity interaction (KinomeScan (DiscoverX)) EUB0000735a PRKG1; conditions: at 1 µM
[34] = molecular target: Muscarinic acetylcholine receptor M1 (Homo sapiens, UniProt P11229); assay: Selectivity interaction (GPCR panel (PDSP screen)) EUB0000743a CHRM1
[35] = molecular target: SRSF protein kinase 2 (Homo sapiens) (UniProt P78362); assay: Selectivity interaction (KinomeScan (DiscoverX)) EUB0000743a SRPK2; conditions: Cellular assay (active RAS (KRAS, HRAS,NRAS) in Calu-1 cells ([…])): IC50 = 4120 nM, https://www.sgc-ffm.uni-frankfurt.d, at 1 µM
[36] = molecular target: Megakaryocyte-associated tyrosine-protein kinase (Homo sapiens) (UniProt P42679); assay: Selectivity interaction (KinomeScan (DiscoverX)) EUB0000743a MATK; conditions: Cellular assay (active RAS (KRAS, HRAS,NRAS) in Calu-1 cells ([…])): IC50 = 4120 nM, https://www.sgc-ffm.uni-frankfurt.d, at 1 µM
Chain of Megakaryocyte-associated tyrosine-protein kinase (Homo sapiens) (P42679 whole entry): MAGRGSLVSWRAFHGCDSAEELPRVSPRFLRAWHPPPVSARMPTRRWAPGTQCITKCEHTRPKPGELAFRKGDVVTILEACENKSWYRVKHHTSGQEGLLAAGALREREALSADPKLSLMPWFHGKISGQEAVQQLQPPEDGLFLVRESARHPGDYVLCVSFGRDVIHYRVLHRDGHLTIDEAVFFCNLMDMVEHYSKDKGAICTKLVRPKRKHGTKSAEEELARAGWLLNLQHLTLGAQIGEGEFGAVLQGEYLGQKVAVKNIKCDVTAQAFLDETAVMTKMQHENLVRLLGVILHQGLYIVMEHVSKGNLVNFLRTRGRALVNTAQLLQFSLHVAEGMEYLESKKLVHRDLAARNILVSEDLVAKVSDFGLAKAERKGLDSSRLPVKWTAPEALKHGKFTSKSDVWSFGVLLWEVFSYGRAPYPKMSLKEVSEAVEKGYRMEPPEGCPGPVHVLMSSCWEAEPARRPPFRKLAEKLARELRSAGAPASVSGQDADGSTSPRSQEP

Chain of Serine protease 1 (P07477 whole entry): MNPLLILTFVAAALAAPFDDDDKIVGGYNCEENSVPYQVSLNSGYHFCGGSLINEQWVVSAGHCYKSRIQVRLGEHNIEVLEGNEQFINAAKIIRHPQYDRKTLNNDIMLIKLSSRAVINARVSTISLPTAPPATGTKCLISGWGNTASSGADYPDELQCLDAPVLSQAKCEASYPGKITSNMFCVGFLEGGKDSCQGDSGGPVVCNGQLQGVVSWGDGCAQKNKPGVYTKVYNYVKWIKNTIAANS
Chain of Interstitial collagenase (P03956 whole entry): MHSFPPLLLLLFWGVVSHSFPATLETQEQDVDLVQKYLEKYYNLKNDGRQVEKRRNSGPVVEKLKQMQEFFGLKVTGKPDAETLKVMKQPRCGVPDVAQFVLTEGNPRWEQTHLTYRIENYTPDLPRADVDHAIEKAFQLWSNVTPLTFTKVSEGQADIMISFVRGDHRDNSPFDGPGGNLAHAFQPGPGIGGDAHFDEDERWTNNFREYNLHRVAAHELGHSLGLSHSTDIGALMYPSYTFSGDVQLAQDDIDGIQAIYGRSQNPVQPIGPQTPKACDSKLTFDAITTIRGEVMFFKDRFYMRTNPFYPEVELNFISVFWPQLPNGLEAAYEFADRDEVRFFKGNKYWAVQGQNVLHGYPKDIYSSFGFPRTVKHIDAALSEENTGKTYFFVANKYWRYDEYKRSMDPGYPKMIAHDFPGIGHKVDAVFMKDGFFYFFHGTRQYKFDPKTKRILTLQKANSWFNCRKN
Chain of Prolyl endopeptidase FAP (Q12884 whole entry): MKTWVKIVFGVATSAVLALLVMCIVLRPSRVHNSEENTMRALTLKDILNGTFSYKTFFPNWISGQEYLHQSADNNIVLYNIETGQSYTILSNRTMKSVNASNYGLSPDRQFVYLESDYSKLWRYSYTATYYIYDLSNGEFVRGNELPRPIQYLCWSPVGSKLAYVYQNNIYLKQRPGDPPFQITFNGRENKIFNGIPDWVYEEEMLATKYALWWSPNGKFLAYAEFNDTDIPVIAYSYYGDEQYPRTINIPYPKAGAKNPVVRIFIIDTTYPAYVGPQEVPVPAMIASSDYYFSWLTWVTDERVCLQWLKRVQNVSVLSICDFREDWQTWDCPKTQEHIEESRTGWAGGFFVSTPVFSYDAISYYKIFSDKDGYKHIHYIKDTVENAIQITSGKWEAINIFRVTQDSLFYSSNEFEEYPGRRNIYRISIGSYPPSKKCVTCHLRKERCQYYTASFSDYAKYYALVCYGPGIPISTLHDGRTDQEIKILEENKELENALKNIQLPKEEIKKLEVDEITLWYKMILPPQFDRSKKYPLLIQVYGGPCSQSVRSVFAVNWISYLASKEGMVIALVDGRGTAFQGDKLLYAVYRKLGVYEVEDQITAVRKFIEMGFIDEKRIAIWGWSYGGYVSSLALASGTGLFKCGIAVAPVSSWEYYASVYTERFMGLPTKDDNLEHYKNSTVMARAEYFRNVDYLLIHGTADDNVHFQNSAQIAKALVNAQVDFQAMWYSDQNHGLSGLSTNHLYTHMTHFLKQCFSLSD
Chain of Kallikrein-1 (P06870 whole entry): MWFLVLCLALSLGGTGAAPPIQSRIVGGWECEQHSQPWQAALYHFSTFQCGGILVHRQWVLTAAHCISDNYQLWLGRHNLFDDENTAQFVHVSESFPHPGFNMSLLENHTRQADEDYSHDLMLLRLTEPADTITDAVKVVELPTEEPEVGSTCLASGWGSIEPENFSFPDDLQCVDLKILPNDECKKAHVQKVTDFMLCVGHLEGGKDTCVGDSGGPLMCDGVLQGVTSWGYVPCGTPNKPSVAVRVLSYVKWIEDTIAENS
Chain of Chymotrypsin-C (Q99895 whole entry): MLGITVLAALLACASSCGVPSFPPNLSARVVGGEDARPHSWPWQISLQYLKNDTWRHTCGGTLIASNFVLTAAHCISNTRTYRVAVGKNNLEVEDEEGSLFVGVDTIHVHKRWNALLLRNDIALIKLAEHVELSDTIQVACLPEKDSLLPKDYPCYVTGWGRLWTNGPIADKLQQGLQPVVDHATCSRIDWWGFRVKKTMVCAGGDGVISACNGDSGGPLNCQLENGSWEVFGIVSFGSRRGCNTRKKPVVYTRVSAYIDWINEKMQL
Chain of Coagulation factor VII (P08709 61-212 limits assumed): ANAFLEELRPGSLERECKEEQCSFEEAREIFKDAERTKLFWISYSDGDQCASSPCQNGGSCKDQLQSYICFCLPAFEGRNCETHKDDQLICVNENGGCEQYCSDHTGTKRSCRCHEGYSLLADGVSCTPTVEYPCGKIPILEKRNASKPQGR
Chain of Coagulation factor VII (P08709 213-466 limits assumed): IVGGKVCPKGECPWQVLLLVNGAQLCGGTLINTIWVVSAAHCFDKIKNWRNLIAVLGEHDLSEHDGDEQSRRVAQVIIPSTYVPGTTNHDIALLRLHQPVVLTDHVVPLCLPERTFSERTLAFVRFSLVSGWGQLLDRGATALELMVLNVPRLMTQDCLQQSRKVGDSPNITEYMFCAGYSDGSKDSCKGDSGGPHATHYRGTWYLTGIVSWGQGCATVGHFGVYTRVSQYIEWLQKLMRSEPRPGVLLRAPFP
Chain of Macrophage metalloelastase (P39900 whole entry): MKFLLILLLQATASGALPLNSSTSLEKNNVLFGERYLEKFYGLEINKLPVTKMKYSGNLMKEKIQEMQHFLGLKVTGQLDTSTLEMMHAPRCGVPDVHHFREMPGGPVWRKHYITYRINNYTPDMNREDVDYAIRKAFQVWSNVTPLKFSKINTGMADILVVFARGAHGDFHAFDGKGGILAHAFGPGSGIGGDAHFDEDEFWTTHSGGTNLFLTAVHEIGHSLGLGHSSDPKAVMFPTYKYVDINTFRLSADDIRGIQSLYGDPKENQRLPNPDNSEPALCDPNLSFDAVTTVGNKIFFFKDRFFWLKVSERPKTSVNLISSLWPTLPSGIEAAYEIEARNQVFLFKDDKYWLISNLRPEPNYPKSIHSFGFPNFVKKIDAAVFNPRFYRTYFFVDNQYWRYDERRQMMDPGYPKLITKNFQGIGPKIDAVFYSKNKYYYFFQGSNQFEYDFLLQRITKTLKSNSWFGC
Chain of Kallikrein-4 (Q9Y5K2 whole entry): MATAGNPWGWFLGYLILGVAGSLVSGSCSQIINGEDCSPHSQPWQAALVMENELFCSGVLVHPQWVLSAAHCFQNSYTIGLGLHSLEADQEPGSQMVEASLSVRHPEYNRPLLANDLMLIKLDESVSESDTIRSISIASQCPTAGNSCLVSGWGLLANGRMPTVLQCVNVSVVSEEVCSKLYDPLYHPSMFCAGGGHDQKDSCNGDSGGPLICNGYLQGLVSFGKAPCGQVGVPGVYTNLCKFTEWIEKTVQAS
Chain of D(2) dopamine receptor (P14416 whole entry): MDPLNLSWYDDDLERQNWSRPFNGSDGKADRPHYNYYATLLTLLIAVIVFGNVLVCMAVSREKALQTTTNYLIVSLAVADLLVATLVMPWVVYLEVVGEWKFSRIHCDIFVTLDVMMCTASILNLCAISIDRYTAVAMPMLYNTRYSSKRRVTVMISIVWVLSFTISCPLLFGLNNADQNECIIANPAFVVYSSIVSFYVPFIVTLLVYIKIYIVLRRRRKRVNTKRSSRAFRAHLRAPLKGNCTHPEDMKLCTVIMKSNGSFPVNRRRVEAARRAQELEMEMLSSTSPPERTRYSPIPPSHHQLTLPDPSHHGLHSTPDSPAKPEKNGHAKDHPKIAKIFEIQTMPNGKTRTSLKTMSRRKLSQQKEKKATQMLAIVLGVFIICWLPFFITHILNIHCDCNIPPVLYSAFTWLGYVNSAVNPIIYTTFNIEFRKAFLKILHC
Chain of SRSF protein kinase 2 (Homo sapiens) (P78362 whole entry, looked up): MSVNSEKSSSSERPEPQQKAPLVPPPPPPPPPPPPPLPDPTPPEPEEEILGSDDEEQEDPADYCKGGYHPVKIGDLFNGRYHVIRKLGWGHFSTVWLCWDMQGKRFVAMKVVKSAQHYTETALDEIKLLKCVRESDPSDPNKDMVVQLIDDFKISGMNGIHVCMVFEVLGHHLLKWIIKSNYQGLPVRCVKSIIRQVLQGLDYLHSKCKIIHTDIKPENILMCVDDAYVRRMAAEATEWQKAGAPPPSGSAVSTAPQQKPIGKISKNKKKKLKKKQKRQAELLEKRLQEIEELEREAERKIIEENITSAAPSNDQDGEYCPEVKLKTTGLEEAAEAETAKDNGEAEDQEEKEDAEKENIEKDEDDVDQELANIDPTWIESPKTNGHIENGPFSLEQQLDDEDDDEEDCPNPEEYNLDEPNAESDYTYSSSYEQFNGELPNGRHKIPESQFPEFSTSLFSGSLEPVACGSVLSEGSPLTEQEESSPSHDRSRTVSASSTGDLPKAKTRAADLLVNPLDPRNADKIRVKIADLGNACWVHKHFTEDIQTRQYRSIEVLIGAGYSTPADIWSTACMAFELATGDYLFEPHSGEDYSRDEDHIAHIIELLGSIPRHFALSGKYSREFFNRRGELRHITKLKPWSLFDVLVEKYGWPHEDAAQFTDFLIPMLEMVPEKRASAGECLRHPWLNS

## O=C(O)[C@@H]1[C@@H](Cn2nnc3ccccc3c2=O)CC[C@H]1C(=O)c1ccc(OCCC2CCOCC2)cc1 [BAY-694]
[1]
  % of inhibition: 30%
[2]
  IC50: > 10 µM
[3]
  IC50: > 10 µM
[4]
  IC50: > 10 µM
[5]
  IC50: > 10 µM
[6]
  IC50: > 10 µM
[7]
  IC50: > 10 µM
[8]
  IC50: > 10 µM
[9]
  IC50: > 10 µM
[10]
  IC50: > 10 µM
[11]
  % of control: 43%
[12]
  % of control: 34%

## CCNC(=O)c1cc2c(N3CCOC[C@@H]3C)ccnc2[nH]1
[13]
  Ki: 1.53 µM

## CC(=O)C1=C(C)N(c2cccc(C(F)(F)F)c2)C(=O)N[C@@H]1c1ccc(C#N)nc1 [BAY-678]
[14]
  IC50: > 30 µM
[15]
  IC50: > 30 µM
[16]
  IC50: > 30 µM
[17]
  IC50: > 30 µM
[18]
  IC50: > 30 µM
[19]
  IC50: > 30 µM
[20]
  IC50: > 30 µM
[21]
  IC50: > 30 µM
[22]
  IC50: > 30 µM
[23]
  IC50: > 30 µM
[24]
  IC50: > 30 µM
[25]
  IC50: > 30 µM
[26]
  IC50: > 30 µM
[27]
  IC50: > 30 µM
[28]
  IC50: > 30 µM
[29]
  IC50: > 30 µM
[30]
  IC50: > 30 µM
[31]
  IC50: > 30 µM
[32]
  % of control: 48.7%
[33]
  % of control: 45.5%

## CNCc1ccccc1-c1csc([C@H](C)Nc2nc(C)nc3cc(OC)c(OC)cc23)c1 [BAY-294]
[34]
  Ki: 0.614 µM
[35]
  % of control: 52%
[36]
  % of control: 51%
